One compound from publication PMC7170360 (Drug Delivery, 2020) can be followed below.

Series [1] deals with Hep-G2 cells. Kind of series: MTT cytotoxicity assay. The conditions noted are these: Homo sapiens. In kind it is cell-based. As for the experimental part:
The in vitro cytotoxicity of HES-10-HCPT-SS-Ly micelles was evaluated by MTT assay and Hep-G2 cell lines were used as model object. The Hep-G2 cells were seeded by using 96-well plates and the cell density was 6 × 10^3. The temperature of cell culture was 37 °C and the concentration of CO2 was 5%. The culture medium was removed after 24 h and the micelle solutions with different concentrations are added. The incubation time was 48 h and 72 h respectively to fully evaluate the relationship between cytotoxicity and culture time. Then, 50 μL MTT (0.25 mg/mL) was added to each well and the supernatant was removed. The precipitated formazan crystals were dissolved by DMSO solution after 4 h. The OD values were determined by using an ELIASA reader and the detection wavelength was 492 nm. In addition, cellular uptake of HES-10-HCPT-SS-Ly micelles was also assessed in Hep-G2 cell line. Similarly, the culture medium was removed and different 10-HCPT preparations were added with concentrations of 1.0 mg/mL 24 h after incubation. The 96-well plate was incubated at room temperature on a plate shaker for 24 h, the cells were then washed three times with PBS solution. […] Then, the concentration of 10-HCPT in Hep-G2 cells was determined by HPLC–MS/MS method.
(Tetrazolium assays rely on reduction of a dye to a coloured formazan, in cell work by metabolically active cells.)

The nature of series [2]: Rat pharmacokinetics after intravenous administration. In kind it is in vivo, Sprague-Dawley rats. The conditions noted are these: Sprague-Dawley, plasma, 1.5 mg/kg. The method, then: The pharmacokinetics of HES-10-HCPT-SS-Ly micelles and 10-HCPT injection in Sprague-Dawley rats were evaluated in this study (n = 6). Briefly, HES-10-HCPT-SS-Ly micelles and 10-HCPT injection were injected, respectively. The dose of 10-HCPT was 1.5 mg/kg in both groups. 0.2 mL blood was collected 5 min, 10 min, 15 min, 30 min, 60 min, 2 h, 4 h, 6 h, 8 h, 12 h, 24 h, 48 h, and 72 h after administration. The concentration of 10-HCPT in plasma was determined by HPLC–MS/MS method.

The test system of series [3] is Hep-G2 cells. Kind of series: Cellular uptake test (10-HCPT in cells by HPLC-MS/MS). In kind it is cell-based, human. The conditions noted are these: pH 7.4, 72 h incubation, compared with HES-10-HCPT micelles and HES-10-HCPT-SS-Ly micelles. The method, then:
The in vitro cytotoxicity of HES-10-HCPT-SS-Ly micelles was evaluated by MTT assay and Hep-G2 cell lines were used as model object. The Hep-G2 cells were seeded by using 96-well plates and the cell density was 6 × 10^3. The temperature of cell culture was 37 °C and the concentration of CO2 was 5%. The culture medium was removed after 24 h and the micelle solutions with different concentrations are added. The incubation time was 48 h and 72 h respectively to fully evaluate the relationship between cytotoxicity and culture time. Then, 50 μL MTT (0.25 mg/mL) was added to each well and the supernatant was removed. The precipitated formazan crystals were dissolved by DMSO solution after 4 h. The OD values were determined by using an ELIASA reader and the detection wavelength was 492 nm. In addition, cellular uptake of HES-10-HCPT-SS-Ly micelles was also assessed in Hep-G2 cell line. Similarly, the culture medium was removed and different 10-HCPT preparations were added with concentrations of 1.0 mg/mL 24 h after incubation. […] Briefly, cells were collected and lysed using a French Pressure Cell, the lysate was clarified by centrifugation, and the supernatant liquid was processed by applying liquid–liquid extraction. Then, the concentration of 10-HCPT in Hep-G2 cells was determined by HPLC–MS/MS method.

In the case of `CC[C@@]1(O)C(=O)OCc2c1cc1n(c2=O)Cc2cc3cc(O)ccc3nc2-1` [free 10-HCPT, 10-Hydroxy camptothecin], the IC50 (commonly the concentration at which inhibition is half-maximal) in the series on Hep-G2 cells [1] (HepG2, culture medium pH 7.4, MTT) worked out at 5.1 µM; in the series on Hep-G2 cells [1] (HepG2, pH 5.5, MTT) it was 4.3 µM. Also, the half-life (in general, how long it takes for the measured level to halve) in series [2] was determined as 10 min. Besides, the “cellular uptake by Hep G2 cells” value with Hep-G2 cells [3] was “more easily taken up”.
